Laboratory results taken from patent US20180044343A1, “BICYCLIC IMIDAZOLO DERIVATIVE” (Sumitomo Dainippon Pharma Co., Ltd., priority 2015, published 2018).
pIC50: −log10 of the molar value.

target: PDE1B (Homo sapiens, UniProt Q01064); test: In vitro HTRF PDE1 inhibition assay (PDE1B); format: biochemical; conditions: not given
Sequence (Q01064 whole entry): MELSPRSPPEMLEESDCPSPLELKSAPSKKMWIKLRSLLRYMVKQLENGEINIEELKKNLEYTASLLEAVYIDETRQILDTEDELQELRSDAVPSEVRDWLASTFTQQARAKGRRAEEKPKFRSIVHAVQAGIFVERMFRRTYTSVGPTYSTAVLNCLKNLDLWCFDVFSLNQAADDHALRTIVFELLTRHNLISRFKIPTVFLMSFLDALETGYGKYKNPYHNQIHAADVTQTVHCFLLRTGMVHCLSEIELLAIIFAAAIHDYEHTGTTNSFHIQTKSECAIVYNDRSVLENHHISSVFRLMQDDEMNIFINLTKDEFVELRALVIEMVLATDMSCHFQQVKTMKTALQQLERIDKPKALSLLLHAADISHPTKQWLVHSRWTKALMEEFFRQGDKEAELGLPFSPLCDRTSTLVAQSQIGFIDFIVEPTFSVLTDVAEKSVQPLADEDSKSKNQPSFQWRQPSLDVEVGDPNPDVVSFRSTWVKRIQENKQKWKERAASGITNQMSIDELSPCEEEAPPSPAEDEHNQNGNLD

Row | Structure (SMILES) | pIC50
1 | Cc1ccc([C@H]2CCCN2c2nn3c(C(C)C)ncc3c(=O)n2C)cn1 [Example 216, 3-Methyl-2-[(2R)-2-(6-methylpyridin-3-yl)pyrrolidin-1-yl]-7-(propan-2-yl)imidazo[5,1-f][1,2,4]triazin-4(3H)-one] | > 6.00

same assay, conditions: in vitro PDE1B HTRF Assay; read-out: IC50

Row | Structure (SMILES) | pIC50
2 | COc1nn2c(C3CCOCC3)ncc2c(=O)n1Cc1ccncc1 [Example 281] | 5.00 to 6.00
3 | CCn1c(OCC2(c3ccc(Cl)cc3)CC2)nn2c(C3CCOCC3)ncc2c1=O [Example 76] | > 6.00
4 | CCn1c(OCC2CCC(OC(F)(F)F)CC2)nn2c(C3CCOCC3)ncc2c1=O (stereo not shown) [Example 285] | > 6.00
5 | COCCN1CCCN(c2nn3c(C4CCOCC4)ncc3c(=O)n2C)CC1 [Example 220, 2-[4-(2-Methoxyethyl)-1,4-diazepan-1-yl]-3-methyl-7-(tetrahydro-2H-pyran-4-yl)imidazo[5,1-f][1,2,4]triazin-4(3H)-one] | 4.00 to 5.00
6 | Cn1c(OCc2ccncc2)nn2c(C3CCOCC3)ncc2c1=O [Example 25] | > 6.00
7 | Cc1ccc(CNc2nn3c(C(C)C)ncc3c(=O)n2C)cn1 [Example 155] | > 6.00
8 | CCn1c(OCCCc2ccncc2)nn2c(C3CCOCC3)ncc2c1=O [Example 61] | > 6.00
9 | COc1ccc(CNc2nn3c(C(C)C)ncc3c(=O)n2C)cc1 [Example 140] | > 6.00
10 | Cn1c(OCc2ccc(-c3ccccc3)cc2)nn2c(C3CCOCC3)ncc2c1=O [Example 47] | > 6.00
11 | CCn1c(NCc2ccc(C)nc2)nn2c(C(C)C)ncc2c1=O [Example 176] | > 6.00
12 | Cn1c(OC[C@H]2CC[C@H](C(F)(F)F)CC2)nn2c(C3=CCOCC3)ncc2c1=O [Example 328, 7-(3,6-dihydro-2H-pyran-4-yl)-3-methyl-2-{[trans-4-(trifluoromethyl)cyclohexyl]methoxy}-imidazo[5,1-f][1,2,4]triazin-4(3H)-one] | > 6.00
13 | COc1nn2c(C3CCOCC3)ncc2c(=O)n1Cc1ccccc1 [Example 107] | > 6.00
14 | CC(C)Cn1c(N2CCCC2)nn2c(C3CCOCC3)ncc2c1=O [Example 208] | 5.00 to 6.00
15 | CC(C)c1ncc2c(=O)n(C)c(CN(C)c3ccc(C(F)(F)F)cc3)nn12 [Example 230, 3-Methyl-2-({methyl[4-(trifluoromethyl)phenyl]amino}methyl)-7-(propan-2-yl)imidazo[5,1-f][1,2,4]triazin-4(3H)-one] | > 6.00
16 | COCC1CCN(c2nn3c(C4CCOCC4)ncc3c(=O)n2C)CC1 [Example 192] | > 6.00
17 | CC(C)c1ncc2c(=O)n(C)c(NC(C)(C)c3ccccn3)nn12 [Example 162] | 5.00 to 6.00
18 | CC(C)c1ncc2c(=O)[nH]c(N3CCCC3c3cccc(Cl)c3)nn12 (stereo not shown) [Example 133] | > 6.00
19 | Cc1ccc(COc2nn3c(C4CCOCC4)ncc3c(=O)n2C)cc1 [Example 27] | > 6.00
20 | CCOC[C@H]1CC[C@@H](Oc2nn3c(C4CCOCC4)ncc3c(=O)n2C)CC1 [Example 320] | > 6.00
21 | Cn1c(OC[C@H]2CC[C@H](C(F)(F)F)CC2)nn2c(C3(O)CCOCC3)ncc2c1=O [Example 326, 7-(4-hydroxytetrahydro-2H-pyran-4-yl)-3-methyl-2-{[trans-4-(trifluoromethyl)cyclohexyl]-methoxy}imidazo[5,1-f][1,2,4]triazin-4(3H)-one] | 5.00 to 6.00
22 | CC(C)c1ncc2c(=O)n(C)c(N(C)Cc3ccccn3)nn12 [Example 163] | 5.00 to 6.00
23 | CCn1c(OCc2ccc(F)c(F)c2)nn2c(C3CCOCC3)ncc2c1=O [Example 59] | > 6.00
24 | CCCn1c(N2CCC[C@@H]2c2ccc(Cl)cc2)nn2c(C(C)C)ncc2c1=O [Example 179] | > 6.00
25 | Cn1c(CCc2ccc(F)cc2)nn2c(C3CCOCC3)ncc2c1=O [Example 241, 2-[2-(4-Fluorophenyl)ethyl]-3-methyl-7-(tetrahydro-2H-pyran-4-yl)imidazo[5,1-f][1,2,4]triazin-4(3H)-one] | > 6.00

Row | Structure (SMILES) | pIC50
26 | Cn1c(N2CCCC2)nn2c(C3CCOCC3)ncc2c1=O [Example 183] | > 6.00
27 | Cc1ccc(CNc2nn3c(C4CCOCC4)ncc3c(=O)n2C)c(F)c1 [Example 136, 2-[(2-Fluoro-4-methylbenzyl)amino]-3-methyl-7-(tetrahydro-2H-pyran-4-yl)imidazo[5,1-f][1,2,4]triazin-4(3H)-one] | > 6.00
28 | CCn1c(OCc2ccc(OC)cc2)nn2c(C3CCOCC3)ncc2c1=O [Example 54] | > 6.00
29 | CCn1c(OCc2ccc(-c3ccc(C(F)(F)F)cc3)cc2)nn2c(C3CCOCC3)ncc2c1=O [Example 84] | > 6.00
30 | O=c1c2cnc(C3CCOCC3)n2nc(N2CCCC2)n1CC1CCC1 [Example 211] | 4.00 to 5.00
31 | COc1nn2c(C3CCOCC3)nc(C)c2c(=O)n1CC1CCC(F)(F)CC1 [Example 122] | > 6.00
32 | Cn1c(OC2CCCC2)nn2c(C3CCOCC3)ncc2c1=O [Example 299] | > 6.00
33 | Cc1ccc(-c2nn3c(C4CCOCC4)ncc3c(=O)n2C)cc1 [Example 236, 3-Methyl-2-(4-methylphenyl)-7-(tetrahydro-2H-pyran-4-yl)imidazo[5,1-f][1,2,4]triazin-4(3H)-one] | > 6.00
34 | Cn1c(OCc2ccc(C(F)(F)F)cc2)nn2c(C3CCOCC3)ncc2c1=O [Example 292] | > 6.00
35 | CCn1c(OC[C@H]2CC[C@@H](OC)CC2)nn2c(C3CCOCC3)ncc2c1=O [Example 90] | > 6.00
36 | CCO[C@H]1CC[C@H](COc2nn3c(C4CCOCC4)ncc3c(=O)n2C2CC2)CC1 [Example 291] | > 6.00
37 | COc1nn2c(C3CCOCC3)ncc2c(=O)n1CC1CC1 [Example 272] | > 6.00
38 | COc1nn2c(C3CCOCC3)ncc2c(=O)n1CCC(F)(F)F [Example 276] | 5.00 to 6.00
39 | COCCn1c(OCC2CCC(F)(F)CC2)nn2c(C3CCOCC3)ncc2c1=O [Example 277] | 5.00 to 6.00
40 | Cn1c(OCc2ccc(F)cc2)nn2c(C3CCOCC3)nc(Cl)c2c1=O [Example 117, 5-Chloro-2-[(4-fluorobenzyl)oxy]-3-methyl-7-(tetrahydro-2H-pyran-4-yl)imidazo[5,1-f][1,2,4]triazin-4(3H)-one] | > 6.00
41 | COc1ccc(CCc2nn3c(C4CCOCC4)ncc3c(=O)n2C)cc1 [Example 243, 2-[2-(4-Methoxyphenyl)ethyl]-3-methyl-7-(tetrahydro-2H-pyran-4-yl)imidazo[5,1-f][1,2,4]triazin-4(3H)-one] | > 6.00
42 | O=c1c2cnc(C3CCOCC3)n2nc(N2CCCC2)n1Cc1ccc(Cl)cc1 [Example 203] | > 6.00
43 | Cn1c(OCc2ccc(-c3ccccn3)cc2)nn2c(C3CCOCC3)ncc2c1=O [Example 44] | > 6.00
44 | CCn1c(NCCc2ccccn2)nn2c(C(C)C)ncc2c1=O [Example 177] | > 6.00
45 | CCn1c(NCc2ccc(OC)cn2)nn2c(C(C)C)ncc2c1=O [Example 172] | > 6.00
46 | Cc1ccc(CCCOc2nn3c(C4CCOCC4)ncc3c(=O)n2C)nc1 [Example 42] | > 6.00
47 | CC(C)c1ncc2c(=O)n(C)c(NCCc3ccccn3)nn12 [Example 151] | > 6.00
48 | CCn1c(N2CCCC2)nn2c(C3CCOCC3)ncc2c1=O [Example 198] | > 6.00
49 | CC(C)Cn1c(OCC2CCC(F)(F)CC2)nn2c(C3CCOCC3)ncc2c1=O [Example 96] | > 6.00

Row | Structure (SMILES) | pIC50
50 | COc1cccc(Cn2c(OC)nn3c(C4CCOCC4)ncc3c2=O)c1 [Example 266] | > 6.00
51 | CC(=O)N1CCN(c2nn3c(C4CCOCC4)ncc3c(=O)n2C)CC1 [Example 195] | > 6.00
52 | COC1CCN(c2nn3c(C4CCOCC4)ncc3c(=O)n2C)CC1 [Example 191] | > 6.00
53 | Cn1c(OC[C@H]2CC[C@H](CO)CC2)nn2c(C3CCOCC3)ncc2c1=O [Example 290] | > 6.00
54 | CC(C)c1ncc2c(=O)n(C)c(NC3(c4ccccn4)CC3)nn12 [Example 161] | > 6.00
55 | CCn1c(OCCc2ccc(F)cc2)nn2c(C3CCOCC3)ncc2c1=O [Example 70] | > 6.00
56 | Cn1c(OC[C@H]2CC[C@@H](C(F)(F)F)CC2)nn2c(C3CCOCC3)ncc2c1=O [Example 248, 3-methyl-7-(tetrahydro-2H-pyran-4-yl)-2-{[cis-4-(trifluoromethyl)cyclohexyl]methoxy}-imidazo[5,1-f][1,2,4]triazin-4(3H)-one] | > 6.00
57 | O=c1c2cnc(C3CCOCC3)n2nc(N2CCCC2)n1CCC1CCOCC1 [Example 215] | 4.00 to 5.00
58 | COCC(=O)N1CCCN(c2nn3c(C4CCOCC4)ncc3c(=O)n2C)CC1 [Example 221, 2-[4-(Methoxyacetyl)-1,4-diazepan-1-yl]-3-methyl-7-(tetrahydro-2H-pyran-4-yl)imidazo[5,1-f][1,2,4]triazin-4(3H)-one] | 5.00 to 6.00
59 | CC(C)c1ccc([C@H]2CCCN2c2nn3c(C(C)C)ncc3c(=O)n2C)cc1 [Example 166] | > 6.00
60 | COc1ccc(Cn2c(OC)nn3c(C4CCOCC4)ncc3c2=O)cc1 [Example 265] | > 6.00
61 | Cn1c(OCC2CCC(OC(F)(F)F)CC2)nn2c(C3CCOCC3)ncc2c1=O (stereo not shown) [Example 284] | > 6.00
62 | Cn1c(OCC2CCOCC2)nn2c(C3CCC3)ncc2c1=O [Example 111] | > 6.00
63 | COc1nn2c(C3CCOCC3)ncc2c(=O)n1CCC1CCC(F)(F)CC1 [Example 105] | > 6.00
64 | CC(C)c1ncc2c(=O)n(C)c(NC3CCc4ccccc43)nn12 (stereo not shown) [Example 143] | > 6.00
65 | Cn1c(O[C@H]2CC[C@@H](C(F)(F)F)CC2)nn2c(C3CCOCC3)ncc2c1=O [Example 307] | > 6.00
66 | CCn1c(OCCCc2ccccn2)nn2c(C3CCOCC3)nc(Cl)c2c1=O [Example 118] | > 6.00
67 | CC(C)c1ncc2c(=O)n(C)c(NCc3ccc(Cl)cc3F)nn12 [Example 146] | > 6.00
68 | CCn1c(OCCCc2ncccc2C)nn2c(C3CCOCC3)ncc2c1=O [Example 71] | > 6.00
69 | CCn1c(OCCc2ccc(C(F)(F)F)cc2)nn2c(C3CCOCC3)ncc2c1=O [Example 78] | > 6.00
70 | COc1nn2c(C3CCOCC3)ncc2c(=O)n1Cc1ccc(C)cc1 [Example 264] | > 6.00
71 | CCn1c(OC(C)C2CCC(F)(F)CC2)nn2c(C3CCOCC3)ncc2c1=O (stereo not shown) [Example 92] | > 6.00
72 | CC(C)c1ncc2c(=O)n(C)c(OCc3cccnc3)nn12 [Example 5] | > 6.00
73 | Cn1c(CN2C(=O)c3ccccc3C2=O)nn2c(C3CCCC3)ncc2c1=O [Example 234] | > 6.00
